Measured values taken from ChEMBL document CHEMBL1240301, “Assignment of protein function in the postgenomic era” (Nat Chem Biol, 2005).
pIC50: −log10 of the molar value.

Assays:
[1] = Inhibition of v-Src kinase I338G mutant
[2] = Inhibition of c-Fyn T339G mutant
[3] = target: Calcium/calmodulin-dependent protein kinase type II subunit alpha (Homo sapiens, UniProt Q9UQM7, F89G); assay: Inhibition of CAMK2 F89G mutant
[4] = target: Cyclin-dependent kinase 2 (Homo sapiens, UniProt P24941, F80G); assay: Inhibition of CDK2 F80G mutant
[5] = target: Cyclin-dependent kinase 2 (Homo sapiens, UniProt P24941); assay: Inhibition of wild type CDK2
[6] = Inhibition of wild type CAMK2
[7] = Inhibition of wild-type v-Src
[8] = target: Tyrosine-protein kinase Fyn (Homo sapiens, UniProt P06241); assay: Inhibition of wild type c-Fyn
Chain of Tyrosine-protein kinase Fyn (P06241 whole entry): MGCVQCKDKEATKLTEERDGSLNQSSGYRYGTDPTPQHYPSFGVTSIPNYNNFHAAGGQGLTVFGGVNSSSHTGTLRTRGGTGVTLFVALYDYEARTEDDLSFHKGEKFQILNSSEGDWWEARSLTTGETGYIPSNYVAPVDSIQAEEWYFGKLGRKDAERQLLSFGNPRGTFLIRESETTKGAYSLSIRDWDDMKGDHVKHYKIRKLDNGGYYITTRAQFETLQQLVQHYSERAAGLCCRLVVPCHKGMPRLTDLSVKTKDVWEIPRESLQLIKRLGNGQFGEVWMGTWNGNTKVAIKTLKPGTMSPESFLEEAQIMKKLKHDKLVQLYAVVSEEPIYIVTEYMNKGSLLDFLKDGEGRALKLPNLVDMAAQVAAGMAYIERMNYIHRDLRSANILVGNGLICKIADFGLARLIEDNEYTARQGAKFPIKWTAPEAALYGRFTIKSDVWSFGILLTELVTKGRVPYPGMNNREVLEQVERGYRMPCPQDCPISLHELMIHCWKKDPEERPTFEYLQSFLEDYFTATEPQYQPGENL

[9] = target: Tyrosine-protein kinase ABL1 (Homo sapiens, UniProt P00519, T315A); assay: Inhibition of c-Abl T315A mutant
Chain of Tyrosine-protein kinase ABL1 (Homo sapiens, UniProt P00519, T315A) (P00519 whole entry T315A): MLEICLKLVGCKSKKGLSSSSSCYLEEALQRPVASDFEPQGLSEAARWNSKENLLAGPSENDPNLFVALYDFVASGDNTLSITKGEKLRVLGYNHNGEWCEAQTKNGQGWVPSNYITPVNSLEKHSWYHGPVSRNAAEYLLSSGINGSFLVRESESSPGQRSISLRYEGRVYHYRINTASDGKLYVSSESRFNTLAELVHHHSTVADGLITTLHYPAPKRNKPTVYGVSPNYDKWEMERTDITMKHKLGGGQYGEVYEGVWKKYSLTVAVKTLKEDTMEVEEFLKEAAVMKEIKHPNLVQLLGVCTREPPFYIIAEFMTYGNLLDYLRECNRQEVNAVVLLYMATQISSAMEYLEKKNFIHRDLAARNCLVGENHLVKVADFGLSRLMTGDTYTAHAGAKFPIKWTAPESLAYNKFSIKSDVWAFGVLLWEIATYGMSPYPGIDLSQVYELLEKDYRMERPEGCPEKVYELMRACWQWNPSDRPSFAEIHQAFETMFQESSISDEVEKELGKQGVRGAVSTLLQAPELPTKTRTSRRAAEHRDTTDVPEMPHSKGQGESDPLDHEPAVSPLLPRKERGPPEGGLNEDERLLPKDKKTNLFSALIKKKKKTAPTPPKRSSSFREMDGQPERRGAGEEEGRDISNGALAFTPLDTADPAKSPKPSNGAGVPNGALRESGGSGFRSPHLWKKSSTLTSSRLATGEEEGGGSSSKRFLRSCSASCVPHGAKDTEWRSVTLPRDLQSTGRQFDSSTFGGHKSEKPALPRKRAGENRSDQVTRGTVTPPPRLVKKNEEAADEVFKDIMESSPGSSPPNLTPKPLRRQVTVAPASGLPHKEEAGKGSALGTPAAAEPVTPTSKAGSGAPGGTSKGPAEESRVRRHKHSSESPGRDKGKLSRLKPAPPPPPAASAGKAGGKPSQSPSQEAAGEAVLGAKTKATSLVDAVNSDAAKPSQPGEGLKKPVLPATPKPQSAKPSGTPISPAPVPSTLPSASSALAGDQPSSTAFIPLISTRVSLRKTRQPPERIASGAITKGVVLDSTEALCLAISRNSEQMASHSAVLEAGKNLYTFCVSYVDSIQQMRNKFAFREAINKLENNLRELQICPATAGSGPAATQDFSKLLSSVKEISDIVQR

[10] = target: Tyrosine-protein kinase ABL1 (Homo sapiens, UniProt P00519); assay: Inhibition of wild type c-Abl
Chain of Tyrosine-protein kinase ABL1 (Homo sapiens, UniProt P00519) (P00519 whole entry): as the sequence (P00519 whole entry T315A) above, with A315T counted along it

Chain of Calcium/calmodulin-dependent protein kinase type II subunit alpha (Q9UQM7 whole entry F89G): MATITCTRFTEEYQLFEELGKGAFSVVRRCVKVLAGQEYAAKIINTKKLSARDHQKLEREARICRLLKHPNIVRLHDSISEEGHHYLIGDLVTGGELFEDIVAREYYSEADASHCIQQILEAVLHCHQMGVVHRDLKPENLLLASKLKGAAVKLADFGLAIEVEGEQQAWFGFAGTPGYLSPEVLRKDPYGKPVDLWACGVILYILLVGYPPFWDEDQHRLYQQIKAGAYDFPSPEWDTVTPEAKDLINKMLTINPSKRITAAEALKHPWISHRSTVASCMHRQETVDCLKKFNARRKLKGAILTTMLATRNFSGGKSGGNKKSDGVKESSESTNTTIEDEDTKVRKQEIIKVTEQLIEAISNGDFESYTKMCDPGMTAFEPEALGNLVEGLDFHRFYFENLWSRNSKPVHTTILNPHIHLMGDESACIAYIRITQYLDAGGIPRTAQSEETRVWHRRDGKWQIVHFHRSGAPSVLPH

| pIC50 [1] | pIC50 [2] | pIC50 [3] | pIC50 [4] | pIC50 [5] | pIC50 [6] | pIC50 [7] | pIC50 [8] | pIC50 [9] | pIC50 [10] | Structure (SMILES) |
| --- | --- | --- | --- | --- | --- | --- | --- | --- | --- | --- |
| 8.82 | 8.19 | 7.01 | 7.82 | 4.74 | 4.66 | 6.00 |  |  |  | CC(C)(C)n1nc(-c2cccc3ccccc23)c2c(N)ncnc21 |
| 8.37 | 8.49 |  |  | 4.54 | 4.62 | 4.55 | 6.00 | 6.92 | 5.47 | CC(C)(C)n1nc(Cc2cccc3ccccc23)c2c(N)ncnc21 |
